This is an account of results in ChEMBL document CHEMBL5038588 (J Med Chem, 2021).

In data set [1] the test system is BaF3. Briefly: Inhibition of cell proliferation in mouse BaF3 cells expressing BCR-ABL T315I mutant assessed as cell viability at 100 uM measured after 48 hrs by trypan blue based assay (RVB=100%). The settings on record: read-out: Activity. Format: functional.
Another data set relates to KU812 cell line. Briefly: Cytotoxicity against human KU812 cells assessed as inhibition of cell growth measured after 72 hrs by MTT assay. Format: functional, cell-based. The settings on record: KU812, 72 h.
Data set [2] relates to BaF3. Briefly: cells. The settings on record: Mus musculus, BaF3, 48 h.
Data set [3] has as its system BaF3. Briefly: cells. The settings on record: Mus musculus, BaF3, 72 h.
The next data set deals with Jurkat. Briefly: Cytotoxicity against human Jurkat cells assessed as inhibition of cell growth measured after 72 hrs by MTT assay. Format: functional, cell-based. (In general: Formazan colour is commonly taken as a measure of viable cells.)
For data set [4], the system named is K562. Briefly: cells. The settings on record: Homo sapiens, K562, 72 h.
For a further data set, the system named is U-937. Briefly: Cytotoxicity against human U-937 cells assessed as inhibition of cell growth measured after 72 hrs by MTT assay. Format: functional, cell-based. The settings on record: U-937, 72 h.
A short description of data set [5]: Toxicity in BALB/c nude mouse xenografted with BaF3 cells expressing BCR-ABL T315I mutant assessed as effect on body weight at 2.5 to 10 mg/kg, po administered once daily for 15 days. The settings on record: in vivo, 360 h, dose 2.5-10 mg/kg, time 15 day. Format: organism-based.
The nature of data set [6]: MRT in ICR mouse at 15 mg/kg, po measured upto 24 hrs by LC/MS/MS analysis. Format: ADME, organism-based. The settings on record: in vivo.
Data set [7] is described as follows: AUC (0 to infinity) in ICR mouse at 5 mg/kg, iv measured upto 24 hrs by LC/MS/MS analysis. Format: ADME, organism-based. Also noted: route intravenous, dose 5 mg/kg, time <=24. The settings on record: in vivo.
The nature of data set [8]: Tmax in ICR mouse at 15 mg/kg, po measured upto 24 hrs by LC/MS/MS analysis. Format: ADME, organism-based. The settings on record: in vivo.
Data set [9] concerns BaF3. The data set can be described thus: animal or person. The settings on record: Mus musculus, BaF3, po, 360 h, read-out: TGI.
Data set [10] is described as follows: MRT in ICR mouse at 5 mg/kg, iv measured upto 24 hrs by LC/MS/MS analysis. The settings on record: in vivo. Format: ADME, organism-based.
A short description of data set [11]: Half life in ICR mouse at 15 mg/kg, po measured upto 24 hrs by LC/MS/MS analysis. Format: ADME, organism-based. The settings on record: in vivo.
The nature of data set [12]: AUC (0 to t) in ICR mouse at 15 mg/kg, po measured upto 24 hrs by LC/MS/MS analysis. The settings on record: in vivo. Details: route oral, dose 15 mg/kg, time <=24. Format: ADME, organism-based.
Data set [13] is described as follows: Volume of distribution at steady state in ICR mouse at 5 mg/kg, iv measured upto 24 hrs by LC/MS/MS analysis. Format: ADME, organism-based. The settings on record: in vivo, read-out: Vdss.
The nature of data set [14]: Tmax in ICR mouse at 5 mg/kg, iv measured upto 24 hrs by LC/MS/MS analysis. Format: ADME, organism-based. The settings on record: in vivo.
Data set [15] in a line: Half life in ICR mouse at 5 mg/kg, iv measured upto 24 hrs by LC/MS/MS analysis. The settings on record: in vivo. Format: ADME, organism-based.
A short description of data set [16]: Clearance in ICR mouse at 5 mg/kg, iv measured upto 24 hrs by LC/MS/MS analysis. Format: ADME, organism-based. The settings on record: in vivo.
Data set [17] can be described thus: Cmax in ICR mouse at 5 mg/kg, iv measured upto 24 hrs by LC/MS/MS analysis. Format: ADME, organism-based. Also noted: route intravenous, dose 5 mg/kg, time <=24. The settings on record: in vivo.
A short description of data set [18]: AUC (0 to infinity) in ICR mouse at 15 mg/kg, po measured upto 24 hrs by LC/MS/MS analysis. Format: ADME, organism-based. Details: route oral, dose 15 mg/kg, time <=24. The settings on record: in vivo.
Data set [19] in a line: AUC (0 to t) in ICR mouse at 5 mg/kg, iv measured upto 24 hrs by LC/MS/MS analysis. Format: ADME, organism-based. Details: route intravenous, dose 5 mg/kg, time <=24. The settings on record: in vivo.
Data set [20] in a line: Oral bioavailability in ICR mouse at 15 mg/kg measured upto 24 hrs by LC/MS/MS analysis. Format: ADME, organism-based. The settings on record: in vivo.
Data set [21] is described as follows: Cmax in ICR mouse at 15 mg/kg, po measured upto 24 hrs by LC/MS/MS analysis. Format: ADME, organism-based. Details: route oral, dose 15 mg/kg, time <=24. The settings on record: in vivo.
Data set [22] has as its system K562. The settings on record: Homo sapiens.

Each structure is given as a SMILES string. Where only a bound is given, the exact number is not on record here.

Turning to `CN1CCN(Cc2ccc3nc(-c4ccc(Cl)c(C#Cc5ccc(NC6CC6)nn5)c4)[nH]c3c2)CC1`, the viability at 100 µM in the data set on BaF3 [1] was 74.8%.

`Cc1ccc(C(=O)Nc2ccc3c(c2)C(F)(F)C[C@H]3N2CCN(C)CC2)cc1C#Cc1cnc(NC2CC2)nc1`: the IC50 – broadly, the midpoint of a concentration-inhibition curve – with KU812 cell line is 5.2 nM; with BaF3 [2] it was over 100 nM; with BaF3 [3] it was 62.5 nM; in the data set with Jurkat, 400 nM; in the data set on K562 [4], 10.4 nM; in the data set on U-937, 465 nM.

Consider `Cc1cn(-c2ccc3nc(-c4ccc(C)c(C#Cc5cnc6cccnn56)c4)[nH]c3c2)cn1`, for which, in the data set with BaF3 [1], the viability at 100 µM was found to be 94.1%.

For the molecule `Cc1ccc(-c2nc3ccc(CN4CCN(C)CC4)cc3[nH]2)cc1C#Cc1ccc(NC(C)C)nn1`, the viability at 100 µM in the data set with BaF3 [1] worked out at 96.5%.

As for `CN1CCN(Cc2ccc3nc(-c4ccc(Cl)c(C#Cc5cnc6cccnn56)c4)[nH]c3c2)CC1`, the viability at 100 µM in the data set with BaF3 [1] amounted to 94.5%.

For the molecule `Cc1ccc(-c2nc3ccc(CN4CCN(C)CC4)cc3[nH]2)cc1C#Cc1ccc(NC2CC2)nn1`, the viability at 100 µM in the data set with BaF3 [1] was determined as 88.9%.

For the molecule `CN1CCN(Cc2ccc3nc(-c4ccc(Cl)c(C#Cc5cnc(NC6CC6)nc5)c4)[nH]c3c2)CC1`, in the data set on BaF3 [1], the viability at 100 µM stood at 105%.

Turning to `CC(C)Nc1ccc(C#Cc2cc(-c3nc4ccc(CN5CCN(C)CC5)cc4[nH]3)ccc2Cl)nn1`, the viability at 100 µM in the data set with BaF3 [1] amounted to 100%.

For `CN1CCN(Cc2ccc3nc(-c4ccc(Cl)c(C#Cc5ccc(NC6CCC6)nn5)c4)[nH]c3c2)CC1`, the viability at 100 µM with BaF3 [1] amounted to 97.4%.

For the molecule `Cc1ccc(-c2nc3ccc(CN4CCN(C)CC4)cc3[nH]2)cc1C#Cc1ccc(NC2CCC2)nn1`, the viability at 100 µM in the data set on BaF3 [1] is 110%.

Regarding `CN1CCN(Cc2ccc(NC(=O)N3CCCC(C#Cc4cnc5cccnn45)C3)cc2C(F)(F)F)CC1` (stereo unspecified), the viability at 100 µM in the data set with BaF3 [1] came to 84.3%.

In the case of `Cc1ccc(C(=O)Nc2ccc3c(c2)C(F)(F)C[C@@H]3N2CCN(C)CC2)cc1C#Cc1cnc(NC2CC2)nc1`, the IC50 in the data set on KU812 cell line amounted to 0.2 nM; with BaF3 [2] it was 12.4 nM; with BaF3 [3] it was 3.5 nM; with Jurkat, 280 nM; with K562 [4], 0.6 nM; in the data set with U-937, 165 nM.

As for `Cc1ccc(-c2nc3ccc(CN4CCN(C)CC4)cc3[nH]2)cc1C#Cc1cnc(NC2CC2)nc1`, the viability at 100 µM in the data set on BaF3 [1] was 90.4%.

Turning to `Cc1ccc(C(=O)Nc2ccc3c(c2)C(F)(F)C[C@@H]3N2CCN(C)CC2)cc1C#Cc1cnc2cccnn12.Cl`, the Activity entry in data set [5] was “Non-Toxic”.

On to `Cc1ccc(C(=O)Nc2ccc3c(c2)C(F)(F)C(N2CCN(C)CC2)C3)cc1C#Cc1cnc2cccnn12` (stereo unspecified), for which the viability at 100 µM in the data set with BaF3 [1] was found to be 91.5%.

`CN1CCN(Cc2ccc(NC(=O)N3CCC(C#Cc4cnc5cccnn45)C3)cc2C(F)(F)F)CC1` (stereo unspecified): the viability at 100 µM in the data set with BaF3 [1] was determined as 91.9%.

For `Cc1ccc(-c2nc3ccc(CN4CCN(C)CC4)cc3[nH]2)cc1C#Cc1cnc2cccnn12`, the viability at 100 µM in the data set with BaF3 [1] came out at 84.5%.

Consider `Cc1ccc(NC(=O)c2ccc(CN3CCN(C)CC3)cc2)cc1Nc1nccc(-c2cccnc2)n1` [IMATINIB], for which the IC50 in the data set on KU812 cell line was 51.3 nM; with BaF3 [2], over 100 nM; with BaF3 [3] it was over 100 nM; with Jurkat, over 1000 nM; in the data set with K562 [4], 82.9 nM; in the data set with U-937, over 1000 nM.

On to `Cc1cn(-c2cc(NC(=O)c3ccc(C)c(Nc4nccc(-c5cccnc5)n4)c3)cc(C(F)(F)F)c2)cn1` [NILOTINIB], for which the IC50 is 1.8 nM in the data set with KU812 cell line; over 100 nM in the data set on BaF3 [2]; 11.8 nM in the data set with BaF3 [3]; over 1000 nM with Jurkat; 1.8 nM in the data set on K562 [4]; over 1000 nM in the data set on U-937.

As to `Cc1ccc(C(=O)Nc2ccc(CN3CCN(C)CC3)c(C(F)(F)F)c2)cc1C#Cc1cnc2cccnn12` [PONATINIB], the MRT (as a rule, the average time that molecules of a dose stay in the body) in [6] stood at 5.25 h; in data set [10], 4.29 h. For the same molecule, the IC50 in the data set on KU812 cell line turned out to be 0.1 nM; in the data set on BaF3 [3], 0.9 nM; in the data set with Jurkat it was 295 nM; in the data set on U-937, 246 nM; in the data set on K562 [22] it was 10 nM. The area under the curve AUC(0-inf) (usually total exposure, with the tail of the curve extrapolated) in [7] was 528 ng·h/mL; in data set [18] it was 432 ng·h/mL. Also, the Tmax (usually the time from dosing to the highest level) in data set [8] was determined as 1.5 h; in data set [14] it was 4.8 min. Besides, the inhibition in vivo at 5 mg/kg with BaF3 [9] stood at 53%. Besides, the results for the half-life in [11] and in data set [15] were 2.84 h and 3.28 h, respectively. Besides, the AUC(0-t) (commonly the area under the concentration-time curve up to a stated or last time point) at 24 h in data set [12] was 363 ng·h/mL; in [19] it was 497 ng·h/mL. Moreover, the Vd in [13] came out at 41 L/kg. Besides, the clearance – broadly, a measure of how efficiently the substance is removed, as volume per time – in data set [16] was 161 mL/min/kg. Moreover, the viability at 100 µM in the data set on BaF3 [1] was 2.8%. The Cmax (commonly the maximum level reached in the sampled fluid or tissue) amounted to 270 ng/mL in data set [17] and 70 ng/mL in data set [21]. Also, the bioavailability (commonly the share of a dose that reaches the circulation, judged against a reference dose that is usually intravenous) in data set [20] came to 27%.
